For one assay, the target named is CDK2/Cyclin E1 (Homo sapiens, UniProt P24941). As to the kind of experiment: CDK2/Cyclin E1 Biochemical Assay (TR-FRET), 0.060 mM ATP. Conditions: 0.15 μM Rb (Ser780)-biotin substrate, pH7.0, 60 min preincubation, 120 min reaction, room temperature. The method in brief: (§1)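 Inhibitor concentrations up to 10 μM were preincubated with each cyclin–kinase complex for 60 minutes before ATP and biotinylated Rb (Ser780) substrate (0.15 μM) were added. After 120 minutes at room temperature, phosphorylation was quantified by HTRF and IC50 values were fitted with a four-parameter logistic equation.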
Background: TR-FRET usually uses a lanthanide donor and a delayed reading to cut background.

The next assay concerns the target CDK1/Cyclin B1 (Homo sapiens, UniProt P06493). As to the kind of experiment: CDK1/Cyclin B1 Biochemical Assay (TR-FRET), 0.015 mM ATP. Conditions: 0.15 μM Rb (Ser780)-biotin substrate, pH7.0, 60 min preincubation, 120 min reaction, room temperature. An outline of the steps: as §1

The structures appear in SMILES notation.

Sequence of CDK1/Cyclin B1 (P06493 whole entry): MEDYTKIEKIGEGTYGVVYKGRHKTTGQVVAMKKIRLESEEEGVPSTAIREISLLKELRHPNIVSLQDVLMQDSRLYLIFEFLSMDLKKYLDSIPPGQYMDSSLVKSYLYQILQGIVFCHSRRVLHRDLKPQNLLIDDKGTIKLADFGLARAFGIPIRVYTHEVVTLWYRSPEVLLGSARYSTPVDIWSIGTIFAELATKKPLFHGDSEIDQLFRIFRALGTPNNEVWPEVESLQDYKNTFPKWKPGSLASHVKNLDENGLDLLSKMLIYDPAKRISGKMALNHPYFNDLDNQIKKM
Sequence of CDK1/Cyclin B1 (P14635 whole entry partner): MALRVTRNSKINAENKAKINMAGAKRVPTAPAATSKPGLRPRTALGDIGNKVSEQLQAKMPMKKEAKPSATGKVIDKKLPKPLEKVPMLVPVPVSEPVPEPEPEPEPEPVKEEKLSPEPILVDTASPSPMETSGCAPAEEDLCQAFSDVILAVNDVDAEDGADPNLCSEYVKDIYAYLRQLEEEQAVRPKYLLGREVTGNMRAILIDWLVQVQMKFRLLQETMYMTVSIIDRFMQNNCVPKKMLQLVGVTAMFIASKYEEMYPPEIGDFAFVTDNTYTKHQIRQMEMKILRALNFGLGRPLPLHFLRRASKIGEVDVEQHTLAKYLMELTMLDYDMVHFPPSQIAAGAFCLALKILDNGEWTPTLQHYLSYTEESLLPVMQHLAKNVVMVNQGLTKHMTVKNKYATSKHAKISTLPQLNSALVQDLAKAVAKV

Usually IC50 stands for the concentration that gives 50% inhibition. Read a low IC50 as greater potency. As for `C[C@@H](CO)NC(=O)O[C@H]1CC[C@@H](c2cc(Nc3ccc4c(c3F)CN(C3CC3)S4(=O)=O)n[nH]2)C1` (relative stereo) [Example 120, cis-3-(3-((2-cyclopropyl-4-fluoro-1,1-dioxido-2,3-dihydrobenzo[d]isothiazol-5-yl)amino)-1H-pyrazol-5-yl)cyclopentyl((S)-1-hydroxypropan-2-yl)carbamate], the figures for the IC50 against CDK2/Cyclin E1 and on CDK1/Cyclin B1 were 32 nM and 773 nM, respectively.

`CN1Cc2c(ccc(Nc3cc([C@@H]4CC[C@H](OC(=O)NC5(C)CC5)C4)[nH]n3)c2F)S1(=O)=O` (relative stereo) [Example 124, cis-3-(3-((4-fluoro-2-methyl-1,1-dioxido-2,3-dihydrobenzo[d]isothiazol-5-yl)amino)-1H-pyrazol-5-yl)cyclopentyl(1-methylcyclopropyl)carbamate]: the IC50 against CDK2/Cyclin E1 was determined as 1.6 nM; at CDK1/Cyclin B1, 120 nM.

`CCCNC(=O)O[C@H]1CC[C@@H](c2cc(Nc3ccc4c(c3F)CN(CCO)S4(=O)=O)n[nH]2)C1` (relative stereo) [Example 126, cis-3-(3-((4-fluoro-2-(2-hydroxyethyl)-1,1-dioxido-2,3-dihydrobenzo[d]isothiazol-5-yl)amino)-1H-pyrazol-5-yl)cyclopentyl propylcarbamate]: the results for the IC50 on CDK2/Cyclin E1 and on CDK1/Cyclin B1 were 8.3 nM and 261 nM, respectively.

`CC[C@H](C)NC(=O)O[C@H]1CC[C@@H](c2cc(Nc3ccc4c(c3F)CN(CCO)S4(=O)=O)n[nH]2)C1` (relative stereo) [Example 127, cis-3-(3-((4-fluoro-2-(2-hydroxyethyl)-1,1-dioxido-2,3-dihydrobenzo[d]isothiazol-5-yl)amino)-1H-pyrazol-5-yl)cyclopentyl((S)-sec-butyl)carbamate]: the IC50 on CDK2/Cyclin E1 was 1.9 nM; against CDK1/Cyclin B1, 176 nM.

Turning to `[2H]C([2H])([2H])N1Cc2c(ccc(Nc3cc([C@@H]4CC[C@H](OC(=O)NCCC)C4)[nH]n3)c2F)S1(=O)=O` (relative stereo) [Example 130, cis-3-(3-((4-fluoro-2-(methyl-d3)-1,1-dioxido-2,3-dihydrobenzo[d]isothiazol-5-yl)amino)-1H-pyrazol-5-yl)cyclopentyl propylcarbamate], the IC50 against CDK2/Cyclin E1 was 5.7 nM; against CDK1/Cyclin B1, 241 nM.

Take `[2H]C([2H])([2H])N1Cc2c(ccc(Nc3cc([C@@H]4CC[C@H](OC(=O)N[C@@H](C)CC)C4)[nH]n3)c2F)S1(=O)=O` (relative stereo) [Example 131, cis-3-(3-((4-fluoro-2-(methyl-d3)-1,1-dioxido-2,3-dihydrobenzo[d]isothiazol-5-yl)amino)-1H-pyrazol-5-yl)cyclopentyl((S)-sec-butyl)carbamate]: the results for the IC50 against CDK2/Cyclin E1 and against CDK1/Cyclin B1 were 1.4 nM and 152 nM, respectively.

Consider `CC1(NC(=O)O[C@H]2CC[C@@H](c3cc(Nc4ccc5c(c4F)CN(C4COC4)S5(=O)=O)n[nH]3)C2)CC1` (relative stereo) [Example 135, cis-3-(3-((4-fluoro-2-(oxetan-3-yl)-1,1-dioxido-2,3-dihydrobenzo[d]isothiazol-5-yl)amino)-1H-pyrazol-5-yl)cyclopentyl(1-methylcyclopropyl)carbamate], for which the values for the IC50 against CDK2/Cyclin E1 and against CDK1/Cyclin B1 were 4.3 nM and 320 nM, respectively.

As to `CCCNC(=O)O[C@H]1CC[C@@H](c2cc(Nc3ccc4c(c3F)CN(C3COC3)S4(=O)=O)n[nH]2)C1` (relative stereo) [Example 136, cis-3-(3-((4-fluoro-2-(oxetan-3-yl)-1,1-dioxido-2,3-dihydrobenzo[d]isothiazol-5-yl)amino)-1H-pyrazol-5-yl)cyclopentyl propylcarbamate], the results for the IC50 on CDK2/Cyclin E1 and on CDK1/Cyclin B1 were 22 nM and 457 nM, respectively.

Regarding `CCNC(=O)O[C@H]1CC[C@@H](c2cc(Nc3ccc4c(c3F)CNS4(=O)=O)n[nH]2)C1` (relative stereo) [Example 141, cis-3-(3-((4-fluoro-1,1-dioxido-2,3-dihydrobenzo[d]isothiazol-5-yl)amino)-1H-pyrazol-5-yl)cyclopentyl ethylcarbamate], the figures for the IC50 against CDK2/Cyclin E1 and against CDK1/Cyclin B1 were 8 nM and 157 nM, respectively.

The values above are taken from patent US20260297080A1, “BICYCLIC COMPOUNDS AS CDK INHIBITORS” (BeOne Medicines I GmbH, priority 2022, published 2026).
